Laboratory results published in patent US12643867B2, “Compositions and uses thereof” (University of Virginia Patent Foundation, priority 2017, dated 2026).

Target: T1, LATS1 (Serine/threonine-protein kinase LATS1) (Homo sapiens, UniProt O95835)
T1 construct: Native kinases; endogenous in cells; host or cells: HEK293T soluble proteome
T1 sequence (O95835 1-1130): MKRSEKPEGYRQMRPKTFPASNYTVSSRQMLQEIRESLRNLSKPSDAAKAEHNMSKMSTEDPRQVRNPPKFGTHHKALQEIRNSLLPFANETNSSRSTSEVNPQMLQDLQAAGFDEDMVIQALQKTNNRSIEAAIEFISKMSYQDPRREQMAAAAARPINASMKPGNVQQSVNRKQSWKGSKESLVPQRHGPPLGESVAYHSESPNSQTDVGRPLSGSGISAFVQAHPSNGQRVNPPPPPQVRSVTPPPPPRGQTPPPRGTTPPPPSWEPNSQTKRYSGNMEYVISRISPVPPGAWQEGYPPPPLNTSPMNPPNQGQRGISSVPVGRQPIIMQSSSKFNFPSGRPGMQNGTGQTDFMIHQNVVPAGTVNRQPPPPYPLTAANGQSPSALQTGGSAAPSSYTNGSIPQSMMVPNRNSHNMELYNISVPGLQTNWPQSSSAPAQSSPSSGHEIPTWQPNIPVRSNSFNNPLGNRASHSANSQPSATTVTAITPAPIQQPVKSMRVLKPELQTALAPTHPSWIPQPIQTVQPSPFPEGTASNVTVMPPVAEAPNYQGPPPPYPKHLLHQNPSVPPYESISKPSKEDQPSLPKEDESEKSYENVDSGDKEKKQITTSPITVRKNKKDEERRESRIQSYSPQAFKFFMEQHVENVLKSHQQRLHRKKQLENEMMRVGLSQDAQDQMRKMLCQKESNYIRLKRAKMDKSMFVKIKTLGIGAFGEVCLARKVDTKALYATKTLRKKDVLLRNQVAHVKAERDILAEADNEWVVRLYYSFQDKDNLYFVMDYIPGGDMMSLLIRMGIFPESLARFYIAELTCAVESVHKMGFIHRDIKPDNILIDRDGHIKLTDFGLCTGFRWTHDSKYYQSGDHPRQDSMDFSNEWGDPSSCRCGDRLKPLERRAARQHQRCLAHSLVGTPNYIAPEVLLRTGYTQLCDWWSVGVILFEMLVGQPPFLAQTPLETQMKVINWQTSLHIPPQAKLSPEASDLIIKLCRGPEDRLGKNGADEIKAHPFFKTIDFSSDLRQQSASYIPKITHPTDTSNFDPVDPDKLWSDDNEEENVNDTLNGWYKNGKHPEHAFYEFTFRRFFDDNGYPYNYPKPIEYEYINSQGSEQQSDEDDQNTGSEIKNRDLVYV
Assay: SILAC LC-MS ATP acyl phosphate probe competition, native kinases in HEK293T
Assay type: binding
Settings: site Lys1; ATP 1 mM; Ketanserin, Ritanserin 100 μM; RF001 1 mM
Method: Proteomes were diluted to 2 mg/ml in kinase buffer. The light and heavy proteomes (0.5 mg, 250 μL total reaction volume) were pre-treated with vehicle or compound, respectively (5 μL, DMSO (light) or 50× stock in DMSO (heavy)), mixed gently, and incubated at 25° C. for 30 min. […] After incubation, matched light and heavy proteomes were transferred and mixed in a 1:1 ratio in a two-dram vial containing 4:1:3 MeOH/CHCl3/H2O (2 mL MeOH, 500 AL CHCl3, 1.5 mL H2O) for extraction of proteins to remove excess probe, quickly vortexed, and centrifuged at 1,400×g for 3 min to pellet protein. Organic and aqueous layers were removed using a Pasteur pipette, and the protein pellet was transferred to a screw-top tube in 600 μL MeOH. A second extraction was performed by adding CHCl3 (150 μL) and H2O (600 μL) to each sample, vortexed, and centrifuged at 1,400×g for 3 min to pellet protein. Organic and aqueous layers were removed by pipetting. MeOH added to pellet (600 μL) and pellets were re-suspended by sonication (3×1 sec pulse, 20% amplitude) for a final extraction. Samples were then centrifuged at 17,000×g for 5 min to pellet protein and MeOH was removed by pipetting. The pellets were re-suspended in 10 M urea/25 mM ammonium bicarbonate ([…]), brought to a final volume of 1 mL with 25 mM ammonium bicarbonate, reduced with 10 mM DTT for 15 min at 65° C. allowed to cool, and then alkylated with 40 mM iodoacetamide for 30 min at 25° C. in the dark. To desalt the samples, each was transferred to a two-dram glass vial, and to the vial 4:1:2 MeOH/CHCl3/H2O (2 mL MeOH, 500 AL CHCl3, 1 mL H2O) was added. The vials were vortexed quickly, spun at 1.400×g for 3 min to pellet protein, and aqueous and organic layers were removed using a Pasteur pipette. The resulting protein pellet was transferred to a screw-top tube in 600 μL MeOH, and then CHCl3 (150 μL) and HO (600 μL) were added to extract protein a second time. The samples were vortexed quickly, centrifuged at 1,400×g to pellet protein, and the aqueous and organic layers were removed by pipetting. Resulting protein pellet was suspended in MeOH (600 μL) via sonication (3×1 sec pulse, 20% amplitude), centrifuged at 17,000×g for 5 min to pellet protein, and MeOH removed by pipetting. Protein pellets were then re-suspended in 25 mM ammonium bicarbonate (500 μL) and digested with 7.5 μg Trypsin/Lys-C(Promega, 15 μL, 0.5 μg/μL) for 3 h at 37° C. Avidin-agarose beads (Thermo Scientific Pierce, 100 AL aliquot per sample) were washed three times by adding 10 mL DPBS, centrifuged at 1,400×g for 1 min, and decanting. This wash step was repeated for a total of 3 times. Digested protein samples were mixed with washed avidin beads (100 μL) and brought to a volume of 5.5 mL with DPBS in a 15 mL conical and rotated for 1 h to enrich samples for the covalent desthiobiotin modification. The beads were washed with 25 mM ammonium bicarbonate (3× with 10 mL, centrifuge at 1,400×g for 3 min, decant) and then H2O (3× with 10 mL, centrifuge at 1,400×g for 3 min, decant). Washed beads were then transferred to a low-bind microfuge tube, centrifuged at 1,400×g for 3 min, allowed to rest for 1 min to settle beads, and then excess H2O was removed carefully using a gel-loading pipette tip. To elute peptides, 100 μL of elution buffer (50% acetonitrile, ACN; 0.1% formic acid) was added to each sample and incubated for 3 min. Beads were spun down at 1.400×g for 3 min, allowed to rest for 1 min to settle beads, and then 75 μL of peptide-containing supernatant was removed carefully using a gel-loading pipette tip and transferred to a new low bind centrifuge tube. This step was repeated two more times with 75 μL of elution buffer and all eluent were collected into the same centrifuge tube (˜225 μL total). Peptides were dried on a speed vacuum, resulting peptide samples acidified in 5% (v/v) formic acid, and stored at −80° C. until analysis.
The peptide samples were analyzed by liquid chromatography-mass spectrometry. […]

SMILES | SILAC ratio, LATS1 probe-modified peptide
O=C(c1ccc(F)cc1)C1CCN(CCn2c(=O)[nH]c3ccccc3c2=O)CC1 [Ketanserin] | 1.2
Fc1ccc(C(=C2CCNCC2)c2ccc(F)cc2)cc1 [RF001, 4-(Bis(4-fluorophenyl)methylene) piperidine] | 1.4
Cc1nc2sccn2c(=O)c1CCN1CCC(=C(c2ccc(F)cc2)c2ccc(F)cc2)CC1 [Ritanserin] | 1.8
